SMILES strings stand for the structures.

For the assay, the target named is T1, RORγt receptor protein (Homo sapiens, UniProt P51449).
T1 sequence (P51449 1-497 isoform P51449-2): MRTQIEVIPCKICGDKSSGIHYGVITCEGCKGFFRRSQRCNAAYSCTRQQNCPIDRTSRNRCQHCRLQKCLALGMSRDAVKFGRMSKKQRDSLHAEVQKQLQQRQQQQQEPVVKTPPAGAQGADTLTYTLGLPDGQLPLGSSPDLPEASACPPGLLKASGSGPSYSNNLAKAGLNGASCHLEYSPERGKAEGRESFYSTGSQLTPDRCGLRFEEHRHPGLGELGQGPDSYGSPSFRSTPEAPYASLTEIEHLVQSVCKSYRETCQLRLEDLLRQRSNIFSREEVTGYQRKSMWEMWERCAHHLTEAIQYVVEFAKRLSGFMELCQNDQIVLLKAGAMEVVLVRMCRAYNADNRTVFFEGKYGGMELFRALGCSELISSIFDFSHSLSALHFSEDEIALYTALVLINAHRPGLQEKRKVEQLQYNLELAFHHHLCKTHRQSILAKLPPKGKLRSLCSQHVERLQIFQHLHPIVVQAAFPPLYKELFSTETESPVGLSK
As to the kind of experiment: General RORγ binding assay (radioligand binding, [3H]25-hydroxy cholesterol displacement). Conditions: displacement of [3H]25-hydroxy cholesterol from 200 ng RORγt receptor protein, 1 h room temperature; test concentrations 0.01-3 μM, concentration for the % not stated. How it is done: General RORγ Binding Assay:
The RORγ binding of compounds of the present invention as described herein to RORγ was measured. For the radioligand binding assay, various concentrations of the test compounds were prepared (0.01 μM, 0.03 μM, 0.1 μM, 0.3 μM, 1 μM and 3 μM) and the samples were incubated with 200 ng of RORγt receptor protein in the presence of the [^3H]25-hydroxy cholesterol and the mixture was incubated at room temperature for 1 h. An extent of displacement of the radioligand was measured after harvesting the reaction mixture on filter plate reader using TopCount (Perkin Elmer) for radioactivity. The compounds of present invention were tested for RORγ binding using the above assay procedure and the results obtained are given in the below Table 1.

Regarding `Cc1nc(O)c2c(n1)C(C)(C)[C@@H]1CC[C@]3(C)[C@H](CC=C4[C@@H]5[C@@H](C)[C@H](C)CC[C@]5(C(=O)O)CC[C@]43C)[C@@]1(C)C2` [Example 31, (1S,2R,4aS,6aS,6bR,8aR,14aR,14bR,16bS)-13-hydroxy-1,2,6a,6b,9,9,11,14a-octamethyl-1,2,3,4,4a,5,6,6a,6b,7,8,8a,9,14,14a,14b,15,16b-octadecahydrochryseno[1,2-g]quinazoline-4a-carboxylic acid], the “ROR binding (%)” value is “++ (‘++’ corresponds to 50 to 70% binding of the compounds of present invention)”.

As to `C[C@H]1[C@H](C)CC[C@]2(C(=O)O)CC[C@]3(C)C(=CC[C@@H]4[C@@]5(C)Cc6c(N7CCOCC7)ncnc6C(C)(C)[C@@H]5CC[C@]43C)[C@H]12` [Example 14, (1S,2R,4aS,6aS,6bR,8aR,14aR,14bR,16bS)-1,2,6a,6b,9,9,14a-heptamethyl-13-morpholino-1,2,3,4,4a,5,6,6a,6b,7,8,8a,9,14,14a,14b,15,16b-octadecahydrochryseno[1,2-g]quinazoline-4a-carboxylic acid], the “ROR binding (%)” value is on record as “++ (‘++’ corresponds to 50 to 70% binding of the compounds of present invention)”.

In the case of `Cc1nc(N2CCOCC2)c2c(n1)C(C)(C)[C@@H]1CC[C@]3(C)[C@H](CC=C4[C@@H]5[C@@H](C)[C@H](C)CC[C@]5(C(=O)O)CC[C@]43C)[C@@]1(C)C2` [Example 55, (1S,2R,4aS,6aS,6bR,8aR,14aR,14bR,16bS)-1,2,6a,6b,9,9,11,14a-octamethyl-13-morpholino-1,2,3,4,4a,5,6,6a,6b,7,8,8a,9,14,14a,14b,15,16b-octadecahydrochryseno[1,2-g]quinazoline-4a-carboxylic acid], the “ROR binding (%)” value was “++ (‘++’ corresponds to 50 to 70% binding of the compounds of present invention)”.

With `C[C@H]1[C@H](C)CC[C@]2(C(=O)O)CC[C@]3(C)C(=CC[C@@H]4[C@@]5(C)Cc6cncnc6C(C)(C)[C@@H]5CC[C@]43C)[C@H]12` [Example 6, (1S,2R,4aS,6aS,6bR,8aR,14aR,14bR,16bS)-1,2,6a,6b,9,9,14a-heptamethyl-1,2,3,4,4a,5,6,6a,6b,7,8,8a,9,14,14a,14b,15,16b-octadecahydrochryseno[1,2-g]quinazoline-4a-carboxylic acid], the “ROR binding (%)” value is on record as “+++ (‘+++’ corresponds to more than 80% binding of the compounds of present invention)”.

Take `COc1ncnc2c1C[C@]1(C)[C@H]3CC=C4[C@@H]5[C@@H](C)[C@H](C)CC[C@]5(C(=O)O)CC[C@@]4(C)[C@]3(C)CC[C@H]1C2(C)C` [Example 23, (1S,2R,4aS,6aS,6bR,8aR,14aR,14bR,16bS)-13-methoxy-1,2,6a,6b,9,9,14a-heptamethyl-1,2,3,4,4a,5,6,6a,6b,7,8,8a,9,14,14a,14b,15,16b-octadecahydrochryseno[1,2-g]quinazoline-4a-carboxylic acid]: the “ROR binding (%)” value was “++ (‘++’ corresponds to 50 to 70% binding of the compounds of present invention)”.

For the compound `Cc1nc(N2CCCC2)c2c(n1)C(C)(C)[C@@H]1CC[C@]3(C)[C@H](CC=C4[C@@H]5[C@@H](C)[C@H](C)CC[C@]5(C(=O)O)CC[C@]43C)[C@@]1(C)C2` [Example 45, (1S,2R,4aS,6aS,6bR,8aR,14aR,14bR,16bS)-1,2,6a,6b,9,9,11,14a-octamethyl-13-(pyrrolidin-1-yl)-1,2,3,4,4a,5,6,6a,6b,7,8,8a,9,14,14a,14b,15,16b-octadecahydrochryseno[1,2-g]quinazoline-4a-carboxylic acid], the “ROR binding (%)” value is listed as “++ (‘++’ corresponds to 50 to 70% binding of the compounds of present invention)”.

In the case of `C[C@H]1[C@H](C)CC[C@]2(C(=O)O)CC[C@]3(C)C(=CC[C@@H]4[C@@]5(C)Cc6cccnc6C(C)(C)[C@@H]5CC[C@]43C)[C@H]12` [Example 84, (1S,2R,4aS,6aS,6bR,8aR,14aR,14bR,16bS)-1,2,3,4,4a,5,6,6a,6b,7,8,8a,9,14,14a,14b,15,16b-octadecahydro-1,2,6a, 6b,9,9,14a-heptamethylchryseno[1,2-g]quinoline-4a-carboxylic acid], the “ROR binding (%)” value is given as “++ (‘++’ corresponds to 50 to 70% binding of the compounds of present invention)”.

In the case of `C[C@H]1[C@H](C)CC[C@]2(C(=O)O)CC[C@]3(C)C(=CC[C@@H]4[C@@]5(C)Cc6c(N(C)C)ncnc6C(C)(C)[C@@H]5CC[C@]43C)[C@H]12` [Example 27, (1S,2R,4aS,6aS,6bR,8aR,14aR,14bR,16bS)-13-(dimethylamino)-1,2,6a,6b,9,9,14a-hepta methyl-1,2,3,4,4a,5,6,6a,6b,7,8,8a,9,14,14a,14b,15,16b-octadecahydrochryseno[1,2-g]quinazoline-4a-carboxylic acid], the “ROR binding (%)” value is on record as “++ (‘++’ corresponds to 50 to 70% binding of the compounds of present invention)”.

`C[C@H]1[C@H](C)CC[C@]2(C(=O)O)CC[C@]3(C)C(=CC[C@@H]4[C@@]5(C)Cc6cc(C(N)=O)cnc6C(C)(C)[C@@H]5CC[C@]43C)[C@H]12` [Example 94, (1S,2R,4aS,6aS,6bR,8aR,14aR,14bR,16bS)-12-carbamoyl-1,2,3,4,4a,5,6,6a,6b,7,8,8a,9,14,14a,14b,15,16b-octadecahydro-1,2,6a,6b,9,9,14a-heptamethylchryseno[1,2-g]quinoline-4a-carboxylic acid]: the “ROR binding (%)” value is listed as “++ (‘++’ corresponds to 50 to 70% binding of the compounds of present invention)”.

Consider `Cc1nc(N(C)C)c2c(n1)C(C)(C)[C@@H]1CC[C@]3(C)[C@H](CC=C4[C@@H]5[C@@H](C)[C@H](C)CC[C@]5(C(=O)O)CC[C@]43C)[C@@]1(C)C2` [Example 38, (1S,2R,4aS,6aS,6bR,8aR,14aR,14bR,16bS)-13-(dimethylamino)-1,2,6a,6b,9,9,11,14a-octamethyl-1,2,3,4,4a,5,6,6a,6b,7,8,8a,9,14,14a,14b,15,16b-octadecahydrochryseno[1,2-g]quinazoline-4a-carboxylic acid], for which the “ROR binding (%)” value was “++ (‘++’ corresponds to 50 to 70% binding of the compounds of present invention)”.

`Cc1ncc2c(n1)C(C)(C)[C@@H]1CC[C@]3(C)[C@H](CC=C4[C@@H]5[C@@H](C)[C@H](C)CC[C@]5(C(=O)O)CC[C@]43C)[C@@]1(C)C2` [Example 59, (1S,2R,4aS,6aS,6bR,8aR,14aR,14bR,16bS)-1,2,6a,6b,9,9,11,14a-octamethyl-1,2,3,4,4a,5,6,6a,6b,7,8,8a,9,14,14a,14b,15,16b-octadecahydrochryseno[1,2-g]quinazoline-4a-carboxylic acid]: the “ROR binding (%)” value is reported as “+++ (‘+++’ corresponds to more than 80% binding of the compounds of present invention)”.

Take `CCS(=O)(=O)c1ncc2c(n1)C(C)(C)[C@@H]1CC[C@]3(C)[C@H](CC=C4C5[C@@H](C)[C@H](C)CC[C@]5(C(=O)O)CC[C@]43C)[C@@]1(C)C2` (stereo partly drawn) [Example 78, (1S,2R,4aS,6aS,6bR,8aR,14aR,14bR)-11-(ethylsulfonyl)-1,2,6a,6b,9,9,14a-heptamethyl-1,2,3,4,4a,5,6,6a,6b,7,8,8a,9,14,14a,14b,15,16b-octadecahydrochryseno[1,2-g]quinazoline-4a-carboxylic acid]: the “ROR binding (%)” value is reported as “+++ (‘+++’ corresponds to more than 80% binding of the compounds of present invention)”.

As to `C[C@H]1[C@H](C)CC[C@]2(C(=O)O)CC[C@]3(C)C(=CC[C@@H]4[C@@]5(C)Cc6cnc(S(C)(=O)=O)nc6C(C)(C)[C@@H]5CC[C@]43C)[C@H]12` [Example 81, (1S,2R,4aS,6aS,6bR,8aR,14aR,14bR,16bS)-1,2,6a,6b,9,9,14a-heptamethyl-11-(methylsulfonyl)-1,2,3,4,4a,5,6,6a,6b,7,8,8a,9,14,14a,14b,15,16b-octadecahydrochryseno [1,2-g]quinazoline-4a-carboxylic acid], the “ROR binding (%)” value is recorded as “+++ (‘+++’ corresponds to more than 80% binding of the compounds of present invention)”.

The values are drawn from patent US10105373B2, “Fused triterpene compounds and uses thereof” (PIRAMAL ENTERPRISES LIMITED, priority 2014, dated 2018).
